Data reported in patent publication US12673052B2, “Combinations for the treatment of cancer” (Exelixis, Inc., priority 2020, dated 2026).
Several values for one entry are separate records, joined by “and”; a condition that tells them apart may be missing. Equal values may be shown once.

How the values were obtained:
[1] = test system: primary human macrophages; test: Macrophage re-polarization: primary CD14+ monocytes cultured in M2 polarizing conditions; type: cell-based; conditions: donor (A, H, L, D, B), Donor A and B n = 1
Procedure: The TAM RTKs play an important role in balancing the functions of M1 and M2 macrophage subsets. Compound 1 was tested for inhibition against primary CD14+ monocytes cultured in M2 polarizing conditions. A dose dependent polarization of the monocytes to pro-inflammatory M1 macrophages across cells from all tested donors was observed (Table 4).

CYP2C8 [2] = test: Cytochrome P450 induction (mRNA levels) in fresh primary human hepatocytes; type: in vitro ADME
[3] = Repeat-dose toxicity studies (7-day range-finding, definitive 28-day, 14-day recovery); type: in vivo, rats
Procedure: (§1) The nonclinical toxicity of Compound 1 was characterized in dose range-finding 7-day and definitive 28-day repeat-dose studies in rats and dogs, and in in vitro bacterial and mammalian genotoxicity bioassays. Compound 1 was also evaluated in definitive neurobehavioral, respiratory and cardiovascular safety pharmacology studies.
Following a 2-week recovery phase, increased physeal thickness and tooth degeneration persisted but were less severe. These findings are consistent with an on-target pharmacologic VEGFR inhibition by Compound 1.
These microscopic lesions were fully reversible following a 14-day recovery period, and were associated with correlative reversible changes in clinical chemistry markers of hepatic function (eg, <2-fold increase in AST and <5-fold increase in ALT at 10 mg/kg/day).

[4] = GLP safety pharmacology: cardiovascular, telemeterized dogs; type: in vivo
Procedure: as §1

CYP2C19 [5] = test: Cytochrome P450 induction (mRNA levels) in fresh primary human hepatocytes; type: in vitro ADME
CYP1A2 [6] = target: CYP1A2 (Homo sapiens, UniProt P05177); test: Cytochrome P450 inhibition in vitro; type: in vitro ADME; conditions: low CYP inhibition potential
Chain of CYP1A2 (Homo sapiens, UniProt P05177) (P05177 whole entry): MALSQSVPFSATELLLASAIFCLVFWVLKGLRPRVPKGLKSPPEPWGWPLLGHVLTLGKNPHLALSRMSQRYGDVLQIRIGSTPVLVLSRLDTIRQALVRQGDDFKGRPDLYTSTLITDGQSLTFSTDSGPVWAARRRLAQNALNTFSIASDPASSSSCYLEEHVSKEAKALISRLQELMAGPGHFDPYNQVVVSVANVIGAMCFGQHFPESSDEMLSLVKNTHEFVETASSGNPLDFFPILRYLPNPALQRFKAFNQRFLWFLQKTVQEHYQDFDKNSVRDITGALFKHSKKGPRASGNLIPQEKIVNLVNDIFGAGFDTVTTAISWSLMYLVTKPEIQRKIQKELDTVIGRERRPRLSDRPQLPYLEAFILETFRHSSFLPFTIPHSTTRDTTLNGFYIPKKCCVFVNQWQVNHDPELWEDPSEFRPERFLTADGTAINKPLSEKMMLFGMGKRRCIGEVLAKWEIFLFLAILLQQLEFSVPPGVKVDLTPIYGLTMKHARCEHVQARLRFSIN
Procedure: (§2) Plasma PK of Compound 1 was characterized in rats and beagle dogs. Toxicokinetic (TK) evaluations of oral Compound 1 were evaluated in repeat-dose studies in rats and dogs. Plasma protein binding was determined in mouse, rat, dog, monkey, and human plasma in vitro. Biotransformation and metabolite profiling of Compound 1 were investigated in vitro using mouse, rat, dog, monkey, and human liver microsomal fractions and hepatocytes and in vivo in rats and dogs. P-glycoprotein (P-gp) and breast cancer resistance protein (BCRP) transporter interaction studies, in vitro experiments evaluating cytochrome P450 (CYP) induction and inhibition by Compound 1, and CYP and glucuronosyltransferase (UGT) substrate specificity studies of Compound 1 were also performed.

CYP2D6 = CYP2D6 (Homo sapiens, UniProt P10635); test: Cytochrome P450 inhibition in vitro; type: in vitro ADME; conditions: low CYP inhibition potential
Chain of CYP2D6 (P10635 whole entry): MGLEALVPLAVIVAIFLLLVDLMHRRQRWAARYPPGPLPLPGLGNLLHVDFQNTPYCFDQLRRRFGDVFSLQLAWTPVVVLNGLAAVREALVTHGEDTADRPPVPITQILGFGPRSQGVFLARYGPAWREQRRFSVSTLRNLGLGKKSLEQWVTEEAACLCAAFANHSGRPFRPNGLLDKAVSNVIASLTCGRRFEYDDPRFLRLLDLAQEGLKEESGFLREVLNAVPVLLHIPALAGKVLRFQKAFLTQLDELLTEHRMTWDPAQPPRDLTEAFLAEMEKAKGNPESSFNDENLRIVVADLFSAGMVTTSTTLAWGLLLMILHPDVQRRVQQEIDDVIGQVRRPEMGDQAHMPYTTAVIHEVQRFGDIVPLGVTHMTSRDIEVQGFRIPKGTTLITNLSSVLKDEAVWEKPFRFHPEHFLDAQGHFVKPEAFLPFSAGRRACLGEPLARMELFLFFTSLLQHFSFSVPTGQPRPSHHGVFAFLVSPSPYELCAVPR
Procedure: as §2

CYP2C8 [7] = target: CYP2C8 (Homo sapiens, UniProt P10632); test: Cytochrome P450 inhibition in vitro; type: in vitro ADME
Chain of CYP2C8 (Homo sapiens, UniProt P10632) (P10632 whole entry): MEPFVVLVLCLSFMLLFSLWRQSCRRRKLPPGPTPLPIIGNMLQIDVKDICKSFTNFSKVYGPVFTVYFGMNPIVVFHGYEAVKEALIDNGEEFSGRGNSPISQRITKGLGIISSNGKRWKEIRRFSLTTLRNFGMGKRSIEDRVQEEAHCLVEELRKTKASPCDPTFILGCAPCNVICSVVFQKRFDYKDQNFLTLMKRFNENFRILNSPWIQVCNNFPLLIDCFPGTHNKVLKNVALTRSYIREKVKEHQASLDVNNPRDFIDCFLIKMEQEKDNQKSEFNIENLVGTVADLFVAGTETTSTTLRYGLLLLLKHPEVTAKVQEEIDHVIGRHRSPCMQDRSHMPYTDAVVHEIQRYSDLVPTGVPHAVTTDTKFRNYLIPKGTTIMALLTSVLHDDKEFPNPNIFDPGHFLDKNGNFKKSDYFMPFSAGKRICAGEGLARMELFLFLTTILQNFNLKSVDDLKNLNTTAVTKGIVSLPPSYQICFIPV
Procedure: as §2

CYP2C9 = CYP2C9 (Homo sapiens, UniProt P11712); test: Cytochrome P450 inhibition in vitro; type: in vitro ADME
Chain of CYP2C9 (P11712 whole entry): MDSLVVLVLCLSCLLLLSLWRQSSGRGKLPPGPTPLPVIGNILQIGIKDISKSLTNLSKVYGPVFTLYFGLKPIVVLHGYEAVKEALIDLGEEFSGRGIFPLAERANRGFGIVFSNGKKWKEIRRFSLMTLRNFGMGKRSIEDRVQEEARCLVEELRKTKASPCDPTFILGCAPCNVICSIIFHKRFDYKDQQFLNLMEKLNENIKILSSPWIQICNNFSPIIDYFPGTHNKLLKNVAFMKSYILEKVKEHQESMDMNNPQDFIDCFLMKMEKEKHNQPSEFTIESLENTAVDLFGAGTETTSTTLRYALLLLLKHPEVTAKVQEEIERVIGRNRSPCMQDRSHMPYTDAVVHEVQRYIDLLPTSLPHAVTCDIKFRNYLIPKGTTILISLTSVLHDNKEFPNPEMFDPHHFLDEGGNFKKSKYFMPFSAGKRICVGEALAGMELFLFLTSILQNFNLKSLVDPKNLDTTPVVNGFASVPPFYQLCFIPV
Procedure: as §2

CYP 2B6 = CYP 2B6 (Homo sapiens, UniProt P20813); test: Cytochrome P450 inhibition in vitro; type: in vitro ADME; conditions: low CYP inhibition potential
Chain of CYP 2B6 (P20813 whole entry): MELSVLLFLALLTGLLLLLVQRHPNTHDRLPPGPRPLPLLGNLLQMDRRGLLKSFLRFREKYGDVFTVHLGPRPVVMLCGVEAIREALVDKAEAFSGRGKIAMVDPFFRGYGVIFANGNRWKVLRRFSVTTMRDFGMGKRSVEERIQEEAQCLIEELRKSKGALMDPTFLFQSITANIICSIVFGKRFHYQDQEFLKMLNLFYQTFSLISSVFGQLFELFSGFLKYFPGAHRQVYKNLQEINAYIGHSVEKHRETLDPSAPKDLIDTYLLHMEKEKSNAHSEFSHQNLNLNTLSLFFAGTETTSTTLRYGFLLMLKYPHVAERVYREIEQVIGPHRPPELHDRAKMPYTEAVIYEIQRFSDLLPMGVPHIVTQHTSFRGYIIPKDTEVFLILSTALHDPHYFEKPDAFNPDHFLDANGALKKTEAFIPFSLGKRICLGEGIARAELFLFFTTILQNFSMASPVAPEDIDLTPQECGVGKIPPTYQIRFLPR
Procedure: as §2

CYP3A4 = CYP3A4 (Homo sapiens, UniProt P08684); test: Cytochrome P450 inhibition in vitro; type: in vitro ADME
Chain of CYP3A4 (P08684 whole entry): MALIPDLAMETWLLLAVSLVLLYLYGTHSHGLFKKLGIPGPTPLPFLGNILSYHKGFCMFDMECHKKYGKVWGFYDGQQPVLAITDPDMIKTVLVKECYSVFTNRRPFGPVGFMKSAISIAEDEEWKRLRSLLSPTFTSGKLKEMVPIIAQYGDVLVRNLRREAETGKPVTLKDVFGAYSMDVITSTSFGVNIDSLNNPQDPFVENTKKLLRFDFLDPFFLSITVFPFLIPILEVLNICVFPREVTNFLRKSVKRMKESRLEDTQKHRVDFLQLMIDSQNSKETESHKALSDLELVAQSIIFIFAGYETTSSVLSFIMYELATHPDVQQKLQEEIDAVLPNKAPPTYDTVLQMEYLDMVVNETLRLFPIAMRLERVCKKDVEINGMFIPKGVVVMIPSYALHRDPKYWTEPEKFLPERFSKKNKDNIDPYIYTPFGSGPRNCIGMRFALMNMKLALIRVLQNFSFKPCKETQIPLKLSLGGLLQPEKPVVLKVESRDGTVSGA
Procedure: as §2

CYP2C19 [8] = target: CYP2C19 (Homo sapiens, UniProt P33261); test: Cytochrome P450 inhibition in vitro; type: in vitro ADME
Chain of CYP2C19 (Homo sapiens, UniProt P33261) (P33261 whole entry): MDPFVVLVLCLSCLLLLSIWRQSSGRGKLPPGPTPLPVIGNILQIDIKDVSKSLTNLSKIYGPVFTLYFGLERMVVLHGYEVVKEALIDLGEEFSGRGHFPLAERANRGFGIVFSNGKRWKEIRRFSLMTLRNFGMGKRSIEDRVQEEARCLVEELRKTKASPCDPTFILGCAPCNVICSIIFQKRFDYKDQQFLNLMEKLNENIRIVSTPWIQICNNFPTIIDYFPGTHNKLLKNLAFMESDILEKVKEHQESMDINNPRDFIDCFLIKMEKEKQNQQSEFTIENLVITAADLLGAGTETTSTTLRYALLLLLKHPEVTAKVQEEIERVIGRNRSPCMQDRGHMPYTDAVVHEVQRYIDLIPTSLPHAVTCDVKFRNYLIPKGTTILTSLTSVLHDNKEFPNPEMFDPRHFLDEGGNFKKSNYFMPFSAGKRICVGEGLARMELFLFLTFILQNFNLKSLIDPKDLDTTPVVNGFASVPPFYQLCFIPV
Procedure: as §2

[9] = Hepatocyte stability assay; type: in vitro ADME, monkey; conditions: hepatocytes
Procedure: In the liver microsomal stability assay, CLint was 0.601 mL/min/g liver in mouse, 0.563 mL/min/g liver in rat, 0.315 mL/min/g liver in dog, 0.734 mL/min/g liver in monkey, and 0.639 mL/min/g liver in human. In the hepatocyte stability assay, Compound 1 CLint was 0.373 mL/min/g liver in mouse, 0.285 mL/min/g liver in rat, 1.08 mL/min/g liver in dog, 0.533 mL/min/g liver in monkey, and 0.317 mL/min/g liver in human.

CYP1A2 [10] = test: Cytochrome P450 induction (mRNA levels) in fresh primary human hepatocytes; type: in vitro ADME
[11] = human, fresh primary human hepatocytes, mRNA induction, read-out: half-maximal effective concentration (EC50)
[12] = 10 mg/kg/day, daily for 4 weeks, reversible

CNC(=O)c1cc2c(Oc3ccc(NC(=O)C4(C(=O)Nc5ccc(F)cc5)CC4)cc3)ccnc2cc1OC [Compound 1, 1-N′-(4-Fluorophenvl)-1-N-[4-[7-methoxy-6-(methylcarbamovl)quinolin-4-yl]oxyphenyl]cyclopropane-1,1-dicarboxamide]
M1/M2 Ratio, Fold Change Relative to DMSO (n = 2) ([1]; 2 uM): 1.3 ± 2.6 and 1.7 (2×) and 1.0 ± 2.6 and 2.2 ± 1.1
M1/M2 Ratio, Fold Change Relative to DMSO (n = 2) ([1]; 4 uM): 3.6 ± 1.2 and 4.1 and 3.3 and 3.7 ± 1.2 and 3.4 ± 1.4
M1/M2 Ratio, Fold Change Relative to DMSO (n = 2) ([1]; 6 uM): 3.5 ± 1.2 and 4.0 and 4.6 and 4.5 ± 1.0 and 4.6 ± 1.7
EC50 (CYP2C8 [2]; [11]): 2010 nM
maximal induction effect (Emax) (CYP2C8 [2]; mRNA, 0.1-100 μM): 7 fold
histopathologic changes in female reproductive tract tissues ([3]; 10 mg/kg/day for 4 weeks, appeared reversible): increased size and number of regressing corpora lutea in ovarian tissue and a higher frequency of dilated uteri
hepatobiliary histologic findings ([3]; 10 mg/kg/day, 4 weeks, minimal to mild severity, fully reversible after 14-day recovery): bile duct inflammation and hyperplasia, and individual hepatocyte necrosis
increase in ALT [3, 12]: < 5 fold
increase in AST [3, 12]: < 2 fold
reversibility of adverse findings ([3]; 14-day non-treatment recovery period): partially or completely reversible
highest non-severely toxic dose (HNSTD) ([3]; GLP 4-week toxicity study, highest dose tested): 10 mg/kg qd
ophthalmic findings ([3]; daily for 4 weeks): No adverse ophthalmic findings
histomorphologic findings in bone and teeth ([3]; daily for 4 weeks, >3 mg/kg/day, persisted but less severe after 2-week recovery): increased physeal thickness of the femur and degeneration of the tooth dentin and enamel
nasal turbinate histologic findings ([3]; recovery cohort, 10 mg/kg/day 4 weeks + 14-day non-treatment, females minimal-moderate, males slight-moderate): proliferation of nasal turbinate bone
bone marrow microscopic findings ([3]; repeat-dose): minimal severity decreased bone marrow cellularity
cholesterol and triglyceride levels ([3]; repeat-dose): Increased cholesterol and triglyceride levels
reticulocytes ([3]; repeat-dose): transient decreases in reticulocytes
spleen findings ([3]; repeat-dose): Extramedullary hematopoiesis (minimal) and increased lymphocytes (minimal-slight)
plasma Cmax relative to hERG channel IC50 ([4]; 18 mg/kg single dose, Cmax higher than IC50): approximately 2 fold
Cmax ([4]; dog, plasma, oral, single dose 18 mg/kg, male telemeterized dogs): ~7 µM
QTc interval ([4]; male telemeterized dogs, single doses as high as 18 mg/kg): no QTc interval prolongation
effect on cardiovascular parameters ([4]; single oral doses as high as 18 mg/kg, through 18 hours postdose): no significant effect on cardiovascular parameters
EC50 (CYP2C19 [5]; [11]): 6.21 µM
maximal induction effect (Emax) (CYP2C19 [5]; mRNA, 0.1-100 μM): 6 fold
IC50 (CYP1A2 [6]): > 33 µM
IC50 (CYP2D6): > 33 µM
Ki (CYP2C8 [7]): 1270 nM
Ki (CYP2C9): 7.11 µM
IC50 (CYP 2B6): > 33 µM
Ki (CYP3A4): 25.2 µM
time-dependent inhibition (CYP3A4; testosterone as probe substrate): time-dependent inhibitor
Ki (CYP2C19 [8]): 1360 nM
CLint [9]: 0.533 mL/min/g liver
EC50 (CYP1A2 [10]; [11]): 930 nM
maximal induction effect (Emax) (CYP1A2 [10]; mRNA, 0.1-100 μM): 5 fold
